# Test results as given in paper PMC10794137, “A new antibiotic traps lipopolysaccharide in its intermembrane transporter” (Nature, 2024).
# Values joined by “and” are separate entries in the source; they are usually repeats but may differ in a detail not shown here. Equal values may be shown once.
# Columns and labels:
# LptB2F^E249KGC = experiment: LPS release assay, LptB2F(E249K)GC; type: biochemical, Acinetobacter baylyi; details: LptF E249K complex, E. coli LPS
# Description: (§1) Proteoliposomes were prepared as described previously. Aqueous E. coli polar lipid extract (Avanti Polar Lipids) (30 mg ml^−1) and aqueous LPS from E. coli EH100 (Ra mutant; Sigma) (2 mg ml^−1) were sonicated briefly for homogenization. For experiments testing the effect of LPS structure, we used LPS isolated from either GKM374 (BL21DE3 eptA::catR arnA::kanR eptC::gentR) or TXM418 (BL21DE3 eptA::catR arnA::FRT eptB::gentR lpxM::kanR) as described previously. A mixture of 20 mM Tris-HCl (pH 8.0), 150 mM NaCl, 7.5 mg ml^−1 of E. coli polar lipids, 0.5 mg ml^−1 of LPS and 0.25% DDM was prepared and kept on ice for 10 min. Purified LptB2FGC or LptB2FG was added to a final concentration of 0.86 μM and the mixture was left on ice for 20 min. The mixture was diluted 100-fold with cold 20 mM Tris-HCl (pH 8.0) and 150 mM NaCl and kept on ice for 20 min. The proteoliposomes were pelleted (300,000g, 2 h, 4 °C), resuspended in 20 mM Tris-HCl (pH 8.0) and 150 mM NaCl, diluted 100× and centrifuged (300,000g, 2 h, 4 °C). The pellets were resuspended in a mixture of 20 mM Tris-HCl (pH 8.0), 150 mM NaCl and 10% glycerol (250 μl per 100 μl of the original predilution solution), homogenized by sonication, flash frozen and stored at −80 °C until use.
# (§2) The amounts of release of LPS from proteoliposomes to LptA were measured as previously described. […]
# LptB2F^I317NGC = experiment: LPS release assay, LptB2F(I317N)GC; type: biochemical, Acinetobacter baylyi; details: LptF I317N complex, E. coli LPS
# Description: as §1, §2
# Acinetobacter LptB2FGC = experiment: LPS release assay from proteoliposomes to LptA, wild-type LptB2FGC; type: biochemical, Acinetobacter baylyi; details: for Inhibition of LPS release (transport) to LptA: wild-type LptB2FGC, E. coli LPS, 60 min
# Description: as §1
# The amounts of release of LPS from proteoliposomes to LptA were measured as previously described. Assays used 60% proteoliposomes (by volume) in a solution containing 50 mM Tris-HCl (pH 8.0), 500 mM NaCl, 10% glycerol and 2 µM LptA^I36pBPA. Reaction mixtures were incubated with drug for 10 min at room temperature, as applicable. Reactions were then initiated by the addition of ATP and MgCl2 (final concentrations of 5 mM and 2 mM, respectively) and proceeded at 30 °C. Aliquots (25 µl) were removed from the reaction mixtures and irradiated with ultraviolet (UV) light (365 nm) on ice for 10 min using a B-100AP lamp (Fisher Scientific). Following UV irradiation, 25 µl of 2× SDS–PAGE sample loading buffer was added, samples were boiled for 10 min and proteins were separated using Tris-HCl 4–20% polyacrylamide gradient gels with Tris-glycine running buffer. Immunoblotting was conducted as described above.
# E. coli LptB2FGC = target: T1, E. coli LptB2FGC (Escherichia coli, UniProt P0ADC6+P0AF98); experiment: LPS release assay, E. coli LptB2FGC; type: biochemical; details: wild-type E. coli LptB2FGC, 60 min
# T1 construct: made in house
# T1 sequence (P0AF98 whole entry): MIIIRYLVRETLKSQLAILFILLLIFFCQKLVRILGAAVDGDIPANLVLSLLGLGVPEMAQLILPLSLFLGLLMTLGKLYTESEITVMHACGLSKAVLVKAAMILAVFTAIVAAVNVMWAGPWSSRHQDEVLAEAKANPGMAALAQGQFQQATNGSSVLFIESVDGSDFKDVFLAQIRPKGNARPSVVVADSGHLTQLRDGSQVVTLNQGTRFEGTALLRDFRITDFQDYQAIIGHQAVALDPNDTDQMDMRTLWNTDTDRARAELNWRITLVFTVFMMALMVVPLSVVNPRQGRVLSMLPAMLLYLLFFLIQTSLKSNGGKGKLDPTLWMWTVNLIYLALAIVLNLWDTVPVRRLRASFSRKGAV
# T1 sequence (P0ADC6 whole entry): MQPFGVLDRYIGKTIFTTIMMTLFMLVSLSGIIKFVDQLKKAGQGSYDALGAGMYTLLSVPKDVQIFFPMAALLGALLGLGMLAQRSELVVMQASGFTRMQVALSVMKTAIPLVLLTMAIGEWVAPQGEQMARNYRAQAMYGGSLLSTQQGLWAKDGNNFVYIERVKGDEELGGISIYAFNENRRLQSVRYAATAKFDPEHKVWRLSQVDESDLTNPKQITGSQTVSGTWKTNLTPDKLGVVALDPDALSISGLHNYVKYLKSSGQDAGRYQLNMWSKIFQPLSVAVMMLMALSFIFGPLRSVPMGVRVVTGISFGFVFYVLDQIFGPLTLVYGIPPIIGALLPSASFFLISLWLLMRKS
# T1 sequence (P0A9V1 whole entry partner): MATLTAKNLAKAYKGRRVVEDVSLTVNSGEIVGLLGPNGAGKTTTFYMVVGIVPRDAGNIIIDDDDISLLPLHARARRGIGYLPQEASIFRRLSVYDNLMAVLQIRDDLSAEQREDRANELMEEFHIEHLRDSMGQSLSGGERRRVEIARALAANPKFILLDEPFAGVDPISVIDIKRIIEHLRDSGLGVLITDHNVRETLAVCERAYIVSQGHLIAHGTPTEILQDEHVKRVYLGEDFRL
# T1 sequence (P0ADV9 whole entry partner): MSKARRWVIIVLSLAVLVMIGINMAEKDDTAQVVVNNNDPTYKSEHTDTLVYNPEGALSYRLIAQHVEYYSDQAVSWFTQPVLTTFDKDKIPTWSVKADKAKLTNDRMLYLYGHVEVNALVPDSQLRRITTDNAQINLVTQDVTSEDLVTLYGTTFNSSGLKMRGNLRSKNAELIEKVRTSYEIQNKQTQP
# Description: The amounts of release of LPS from proteoliposomes to LptA were measured as previously described[20]. Assays used 60% proteoliposomes (by volume) in a solution containing 50 mM Tris-HCl (pH 8.0), 500 mM NaCl, 10% glycerol and 2 µM LptA^I36pBPA. Reaction mixtures were incubated with drug for 10 min at room temperature, as applicable. Reactions were then initiated by the addition of ATP and MgCl2 (final concentrations of 5 mM and 2 mM, respectively) and proceeded at 30 °C. Aliquots (25 µl) were removed from the reaction mixtures and irradiated with ultraviolet (UV) light (365 nm) on ice for 10 min using a B-100AP lamp (Fisher Scientific).
# [1] = system: Acinetobacter baylyi LptG(L36Q); type: cell-based; details: A. baylyi LptG(L36Q)
# Description: (§3) Culture, genetic manipulation and MIC measurements of A. baylyi ADP1 were conducted according to previously reported procedures[46],[51]. Point mutants were constructed in a two-step procedure following ref. [52] with the introduction and excision of the integration cassette at codon 66 of pepA, wherein the excising fragment of otherwise wild-type chromosomal DNA sequence from codon 406 of pepA to codon 193 of lptG bore the desired mutation and the resulting clones were screened by amplicon sequencing from codon 81 of HolC to codon 501 of GpmI, whereas lpxM deletion was achieved following the same procedure except that the integration cassette insertion and excision removed codons 79–279 of lpxM to avoid interference with neighbouring and overlapping genes that a larger deletion may risk and replaced codon 78 with an ochre stop codon to prevent a readthrough resulting in an aberrant fusion, with the excising fragment sequence spanning from codon 211 of sppA to codon 497 of ComA and verified by amplicon sequencing from codon 94 of MhpC to codon 327 of ComA as well as by absence of a PCR product corresponding to a region spanning codons 79 to 279 of lpxM to check for duplications. A deletion of the lon protease was made in the same manner to produce the stain used for expression and purification of LptB2FG to mimic the BL21 strain of E. coli used in the rest of purifications, for which the region encompassing 72 base pairs (bp) upstream of the lon start codon and 1 bp downstream of the lon stop codon was excised after being replaced with the same integration cassette, yielding a markerless deletion, with the excising fragment sequence spanning from codon 491 of ArnT to codon 40 of 45_DOPA_Dioxygenase and verified by amplicon sequencing spanning from codon 322 of ArnT to codon 221 of 45_DOPA_Dioxygenase as well as by absence of a PCR product corresponding to a region spanning from codons 328 to 768 of lon to check for duplications. Following amplicon confirmation, three validated isolates of each constructed mutant were tested for susceptibility to a panel of antibiotics with […] known mechanisms of action as a further validation step to ensure congruence of phenotypes across replicates, which was confirmed in all cases and one of the validated replicates was later used for MIC measurements reported here.
# (§4) MIC determinations were performed by broth microdilution in line with CLSI guidelines (CLSI M07-A11 2018). Bacterial inocula were prepared by diluting overnight liquid cultures in LB. Antibacterial panels containing antibacterial solutions were inoculated with an appropriate volume of inoculum to give a final inoculum of about 5 × 10^5 c.f.u. ml^−1 and desired test concentrations of antibacterial agents in standard 96-well plates with 0.1 ml of culture per well. The test plates were incubated for 20–24 h and optical density (OD600) was recorded using a plate reader. MIC values corresponded to the lowest compound concentration inhibiting bacterial growth beyond which OD ceased to decrease.
# [2] = system: Acinetobacter baylyi LptF(V314L 315del); type: cell-based; details: A. baylyi LptF(V314L 315del)
# Description: as §3, §4
# [3] = system: Acinetobacter baylyi LptF(I317N); type: cell-based; details: A. baylyi LptF(I317N)
# Description: as §3, §4
# [4] = system: Acinetobacter baylyi LptF(R320T); type: cell-based; details: A. baylyi LptF(R320T)
# Description: as §3, §4
# [5] = system: Acinetobacter baylyi LptF(W271R); type: cell-based; details: A. baylyi LptF(W271R)
# Description: as §3, §4
# [6] = system: Acinetobacter baylyi LptF(E58V); type: cell-based; details: A. baylyi LptF(E58V)
# Description: as §3, §4
# [7] = system: Acinetobacter baylyi LptF(E249K); type: cell-based; details: A. baylyi LptF(E249K)
# Description: as §3, §4
compound,measurement,setting,value
CN1C(=O)[C@H](CCCCN)NC(=O)[C@H](CCCN)NCc2cccnc2Sc2c(Cl)ccc(-c3ccc(N)nc3)c2CNC(=O)[C@@H]1Cc1c[nH]c2ccccc12 [Compound 1],Inhibition of LPS release to LptA,LptB2F^E249KGC,did not block LPS release
same,Inhibition of LPS release to LptA,LptB2F^I317NGC,did not block LPS release
same,Fold higher compound concentration at which transport of ΔLpxM LPS was possible vs that inhibiting wild-type LPS transport,Acinetobacter LptB2FGC; LPS from E. coli LpxM deletion strain vs matching wild-type LPS,20 fold
same,Inhibition of LPS release (transport) to LptA,Acinetobacter LptB2FGC,blocked LPS release
"CN1C(=O)[C@H](CCCCN)NC(=O)[C@H](CCCN)NCc2cccnc2Sc2cccc(-c3ccc(C(=O)O)cc3)c2CNC(=O)[C@@H]1Cc1c[nH]c2ccccc12 [Compound 2, Zosurabalpin]",Inhibition of LPS transport to LptA,E. coli LptB2FGC,does not inhibits LPS transport
same,MIC,[1],0.44 µM and 0.35 µg/mL
same,MIC,[2],3 µM and 2 µg/mL
same,MIC,[3],9 µM and 7 µg/mL
same,MIC,[4],1.4 µM and 1.1 µg/mL
same,MIC,[5],0.08 µg/mL and 0.1 µM
same,MIC,[6],3.4 µM and 2.7 µg/mL
same,MIC,[7],17 µM and 13 µg/mL
CN1C(=O)[C@H](CCCCN)NC(=O)[C@H](CCCN)NCc2cccnc2Sc2c(Cl)ccc(Cl)c2CNC(=O)[C@@H]1Cc1c[nH]c2ccccc12 [Compound 3],MIC,[1],0.44 µM and 0.33 µg/mL
same,MIC,[2],0.24 µM and 0.18 µg/mL
same,MIC,[3],> 50 µM
same,MIC,[4],0.24 µM and 0.18 µg/mL
same,MIC,[5],0.07 µg/mL and 0.1 µM
same,MIC,[6],14 µM and 10 µg/mL
same,MIC,[7],> 50 µM
same,Fold less effective than 1 and 2 in LPS release from LptB2FGC to LptA,Acinetobacter LptB2FGC; LptB2FGC with LptC TM helix,100 fold
same,Inhibition of LPS release (transport) to LptA,Acinetobacter LptB2FGC,not inhibited
